Experiment [1] has as its target T1, Fatty-acid amide hydrolase 1 (Rattus norvegicus, UniProt P97612).
T1 sequence (P97612 whole entry): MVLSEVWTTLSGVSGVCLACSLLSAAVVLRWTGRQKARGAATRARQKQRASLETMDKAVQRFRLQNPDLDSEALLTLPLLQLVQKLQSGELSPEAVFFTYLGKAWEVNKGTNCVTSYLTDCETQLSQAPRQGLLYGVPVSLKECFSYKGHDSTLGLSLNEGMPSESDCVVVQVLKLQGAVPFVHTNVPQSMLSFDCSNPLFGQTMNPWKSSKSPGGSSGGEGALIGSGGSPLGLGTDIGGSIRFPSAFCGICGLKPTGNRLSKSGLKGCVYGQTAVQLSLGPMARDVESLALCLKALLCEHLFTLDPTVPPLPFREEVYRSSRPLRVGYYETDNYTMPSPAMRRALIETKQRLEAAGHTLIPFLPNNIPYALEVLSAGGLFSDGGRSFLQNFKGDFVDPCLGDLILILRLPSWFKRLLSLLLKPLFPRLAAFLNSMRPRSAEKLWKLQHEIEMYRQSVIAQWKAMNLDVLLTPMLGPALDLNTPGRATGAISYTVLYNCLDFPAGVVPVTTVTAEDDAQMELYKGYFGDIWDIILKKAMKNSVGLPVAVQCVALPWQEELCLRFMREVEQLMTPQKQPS
The experiment is described as follows: Inhibitory concentration against Fatty-acid amide hydrolase (FAAH) in rat liver.

The target of experiment [2] is T1, Fatty-acid amide hydrolase 1. The experiment is described as follows: Inhibitory constant against Fatty-acid amide hydrolase (FAAH) in rat liver. In kind it is tissue-based.

SMILES strings stand for the structures.

Turning to `CCc1cc2cc3ccccc3cc2cc1CC(=O)C(F)(F)F`, the half-maximal inhibitory concentration (IC50) – broadly, the point on the concentration scale where inhibition reaches its midpoint – in experiment [1] is above 100 µM. Further, the inhibition constant Ki (as a rule, a measure of affinity in units of concentration, obtained from inhibition or displacement) in experiment [2] is above 100 µM.

Molecule `CCCCOC[C@@H]1CC=CC[C@H]1COCCCC(=O)C(F)(F)F` came in with an IC50 in experiment [1] of 2.4 µM. This molecule displayed an inhibitory constant (Ki) in experiment [2] of 0.44 µM.

For `CCCCCCCC/C=C/CCCCCCCC(=O)C(F)(F)F`, half-maximal inhibition in experiment [1] (IC50) required 0.78 µM. In experiment [2], the inhibitory constant (Ki) was 0.17 µM.

For `CCCCCCc1cccc(CCCCCCC(=O)C(F)(F)F)c1`, the concentration for half-maximal inhibition (IC50) in experiment [1] is 0.76 µM. Also, in experiment [2], the inhibition constant (Ki) was found to be 0.14 µM.

As to `O=C(CCCCCc1ccccc1)C(F)(F)F`, 0.84 µM corresponded to half-maximal inhibition in experiment [1] (IC50). In experiment [2], this molecule returned a Ki of 0.17 µM.

In turn, `CCCCOC[C@@H]1CCCC[C@H]1COCCCC(=O)C(F)(F)F` came in with a 50% inhibitory concentration (IC50) in experiment [1] of 9.7 µM. The molecule further gave a Ki in experiment [2] of 1.2 µM.

`CCCCCCCC/C=C\CCCCCCCC(=O)C(F)(F)F`: the IC50 in experiment [1] came out at 0.46 µM. The same molecule yielded an inhibitory constant (Ki) in experiment [2] of 0.082 µM.

On to `CCCCCCCCc1ccccc1CCCCCCCC(=O)C(F)(F)F`, for which 2.5 µM corresponded to half-maximal inhibition in experiment [1] (IC50). The same molecule displayed an inhibition constant (Ki) in experiment [2] of 0.32 µM.

As for `CCCCCCCCCCCCCC(=O)C(F)(F)F`, the concentration for half-maximal inhibition (IC50) in experiment [1] came to 2.3 µM. In experiment [2], this molecule had a Ki of 0.49 µM.

Molecule `CCCCCCCCCCCCCCCCCC(=O)C(F)(F)F` gave a 50% inhibitory concentration (IC50) in experiment [1] of 1.2 µM. The inhibitory constant (Ki) in experiment [2] came out at 0.24 µM.

For the molecule `CCCCCCCCCC(=O)C(F)(F)F`, in experiment [1], the IC50 turned out to be 0.6 µM. Further, affinity in experiment [2] was put at a Ki of 0.13 µM.

As to `CCCCCCCCCCCC(=O)C(F)(F)F`, the half-inhibitory concentration (IC50) in experiment [1] was 0.13 µM. Besides, the Ki in experiment [2] turned out to be 0.14 µM.

`CCCCCCC(=O)C(F)(F)F` displayed an IC50 in experiment [1] of 52.8 µM. Further, the affinity in experiment [2], expressed as Ki, was 10.7 µM.

With `CCCCc1cc2ccccc2cc1CCCC(=O)C(F)(F)F`, in experiment [1], the IC50 is 30.1 µM. This molecule yielded an inhibition constant (Ki) in experiment [2] of 4.4 µM.

As to `CCCCCCCc1ccc(CCCCCCC(=O)C(F)(F)F)cc1`, the half-maximal inhibitory concentration (IC50) in experiment [1] was determined as 0.59 µM. The molecule further registered a Ki in experiment [2] of 0.096 µM.

In turn, `CCCCOC[C@H]1CC=CC[C@H]1COCCCC(=O)C(F)(F)F` returned an IC50 in experiment [1] of 3 µM. The inhibition constant (Ki) in experiment [2] stood at 0.57 µM.

Molecule `O=C(CCCCCCc1ccccc1)C(F)(F)F` yielded an IC50 in experiment [1] of 0.45 µM. In experiment [2], the inhibitory constant (Ki) is 0.1 µM.

`O=C(CCCCCCCc1ccccc1)C(F)(F)F`: 0.12 µM corresponded to half-maximal inhibition in experiment [1] (IC50). The affinity in experiment [2] corresponds to a Ki of 0.025 µM.

For `CCCCCCc1ccccc1CCCCCC(=O)C(F)(F)F`, it took 13.1 µM to reach half-maximal inhibition in experiment [1] (IC50). In experiment [2], this molecule displayed an inhibition constant (Ki) of 2.8 µM.

As for `CCCCCCCC/C=C\CCCCCCCC(C)=O`, the concentration for half-maximal inhibition (IC50) in experiment [1] is above 100 µM. Moreover, the Ki in experiment [2] is above 100 µM.

Regarding `CCCCCC(=O)C(F)(F)F`, in experiment [1], the concentration for half-maximal inhibition (IC50) was found to be 185 µM. The molecule also showed a Ki in experiment [2] of 26.9 µM.

For `CCCCCCCC(=O)C(F)(F)F`, the half-maximal inhibitory concentration (IC50) in experiment [1] worked out at 6.6 µM. In experiment [2], this molecule returned an inhibition constant (Ki) of 1.2 µM.

Take `CCCCOC[C@H]1CCCC[C@H]1COCCCC(=O)C(F)(F)F`: the IC50 in experiment [1] is 5.7 µM. In experiment [2], this molecule came in with an inhibitory constant (Ki) of 0.78 µM.

For the origin of these results see ChEMBL document CHEMBL1132027, “Trifluoromethyl ketone inhibitors of fatty acid amide hydrolase: a probe of structural and conformational features contributing to inhibition” (Bioorg Med Chem Lett, 1999).
